Laboratory results from patent US12678446B2 (PFIZER INC., priority 2020, dated 2026).

Key:
[1] = cell toxicity CC50; type: cell-based; settings: human; Hep-G2 cells; mean of at least two experiments; read-out: Cell Cytotoxicity CC50
[2] = tested on: RSV (RSV A2 ECACC, 0709161v); experiment: RSV plaque reduction assay; type: cell-based, respiratory syncytial virus; settings: human respiratory syncytial virus, HepG2, read-out: RSV A2 Plaque EC50, RSV A2 in Hep-G2 cells; mean of at least two experiments unless noted (n = 1)
Experimental: Compounds w ere subjected to RSV plaque reduction assays according to the following protocol.
Hep-G2 cells (ECACC, 85011430) were passaged in flasks and seeded in 24-well plates in DMEM containing antibiotics and supplemented with 10% FBS. During inoculation and subsequent incubation, cells were cultured in DMEM containing 2% FBS. 100 plaque forming unit/well of RSV (RSV A2 ECACC, 0709161v) was mixed with eight serial dilutions of compound. Subsequently, 100 μL of the virus/compound mixtures was added to confluent Hep-G2 cell monolayers. The cells and virus/compound mixtures were incubated at 37° C. in a humidified 5% CO2 incubator for 2 h prior to removal of the inoculum and addition of 1 mL of overlay (DMEM containing 2% FBS and 0.8% CMC) containing compound dilutions. The cells and were incubated at 37° C. in a humidified 5% CO2 incubator for 2 days.
Cells were washed with PBS before adding 75/25% v/v EtOH MeOH, for 3 min. Fixative was removed and plates were washed with PBS. A pre-titrated amount of the primary antibody was added in 200 μL PBS/2% milk powder, and plates incubated for 90 min at 37° C. The plates were washed 3 times with PBS/0.05% Tween20 before addition of rabbit anti-goat horse radish peroxidase in 200 μL PBS/2% milk powder, and incubated for 1 h at 37° C. Following three wash steps with PBS/0.05% Tween20, 200 μL ready-to-use TrueBlue was added and plates were incubated at rt for 10-15 min before washing with water. After removal of water, plates were air-dried in the dark.
Plates were scanned and analysed using the Immunospot S6 Macro analyser, which is equipped with BioSpot analysis software for counting immunostained plaques (virospots). Plaque counts were used to calculate % infection relative to the mean of the plaque count in the virus control wells for RSV. […] Unless otherwise noted, plaque EC50 and cell toxicity CC50 values are a mean of at least two experiments and figures are rounded to whole units.

| Structure (SMILES) | CC50 [1] [nM] | EC50 [2] [nM] |
| --- | --- | --- |
| O=C(N[C@H]1N=C(c2ccccc2)c2ccccc2NC1=O)c1c(-c2c(F)cccc2F)nn2c1OC(CO)CC2 (single isomer, unassigned) [Example 188-1, (5R*)-2-(2,6-Difluorophenyl)-5-(hydroxymethyl)-N-[(3S)-2-oxo-5-phenyl-1,3-dihydro-1,4-benzodiazepin-3-yl]-6,7-dihydro-5H-pyrazolo[5,1-b][1,3]oxazine-3-carboxamide] | > 25000 | 141 |
| C[C@@H]1CCn2nc(-c3ccc(N4C[C@H]5C[C@@H]4CO5)nc3)c(C(=O)N[C@H]3N=C(c4ccccc4)c4cccc(F)c4NC3=O)c2O1 [Example 86, (5R)-5-Methyl-N-[(3S)-9-fluoro-2-oxo-5-phenyl-1,3-dihydro-1,4-benzodiazepin-3-yl]-2-[6-[(1R,4R)-2-oxa-5-azabicyclo[2.2.1]heptan-5-yl]pyridin-3-yl]-6,7-dihydro-5H-pyrazolo[5,1-b][1,3]oxazine-3-carboxamide] | > 25000 | 44 |
| O=C(N[C@H]1N=C(c2ccccc2)c2cccc(F)c2NC1=O)c1c(-c2ccc(NC3CC3)nc2)nn2c1OCCC2 [Example 15, 2-[6-(Cyclopropylamino)pyridin-3-yl]-N-[(3S)-9-fluoro-2-oxo-5-phenyl-1,3-dihydro-1,4-benzodiazepin-3-yl]-6,7-dihydro-5H-pyrazolo[5,1-b][1,3]oxazine-3-carboxamide] | > 25000 | 30 |
| Cc1cc(NC(C)C)ncc1-c1nn2c(c1C(=O)N[C@H]1N=C(c3ccccc3)c3cccc(F)c3NC1=O)O[C@H](C)CC2 [Example 92, (5R)-5-Methyl-2-[4-methyl-6-(propan-2-ylamino)pyridin-3-yl]-N-[(3S)-9-fluoro-2-oxo-5-phenyl-1,3-dihydro-1,4-benzodiazepin-3-yl]-6,7-dihydro-5H-pyrazolo[5,1-b][1,3]oxazine-3-carboxamide] | > 25000 | 131 |
| CS(=O)(=O)c1ccc(-c2nn3c(c2C(=O)N[C@H]2N=C(c4ccccc4)c4cccc(F)c4NC2=O)OCCC3)c(F)c1 [Example 135, 2-(2-Fluoro-4-methylsulfonylphenyl)-N-[(3S)-9-fluoro-2-oxo-5-phenyl-1,3-dihydro-1,4-benzodiazepin-3-yl]-6,7-dihydro-5H-pyrazolo[5,1-b][1,3]oxazine-3-carboxamide] | > 25000 | 15 |
| CN(C)CC1COc2c(C(=O)N[C@H]3N=C(c4ccccc4)c4cccc(F)c4NC3=O)c(-c3ccccc3F)nn2C1 (single isomer, unassigned) [Example 171-2, (6S*)-6-[(Dimethylamino)methyl]-N-[(3S)-9-fluoro-2-oxo-5-phenyl-1,3-dihydro-1,4-benzodiazepin-3-yl]-2-(2-fluorophenyl)-6,7-dihydro-5H-pyrazolo[5,1-b][1,3]oxazine-3-carboxamide] | > 25000 | 56 |
| NC(=O)c1ccc(-c2nn3c(c2C(=O)N[C@H]2N=C(c4ccccc4)c4cccc(F)c4NC2=O)OCCC3)c(F)c1 [Example 142, 2-(4-Carbamoyl-2-fluorophenyl)-N-[(3S)-9-fluoro-2-oxo-5-phenyl-1,3-dihydro-1,4-benzodiazepin-3-yl]-6,7-dihydro-5H-pyrazolo[5,1-b][1,3]oxazine-3-carboxamide] | > 25000 | 282 |
| CCN(CC)Cc1ccc(-c2nn3c(c2C(=O)N[C@H]2N=C(c4ccccc4)c4cccc(F)c4NC2=O)OCCC3)c(F)c1 [Example 102, 2-[4-(Diethylaminomethyl)-2-fluorophenyl]-N-[(3S)-9-fluoro-2-oxo-5-phenyl-1,3-dihydro-1,4-benzodiazepin-3-yl]-6,7-dihydro-5H-pyrazolo[5,1-b][1,3]oxazine-3-carboxamide] | > 25000 | 135 |
| CN(C)Cc1ccc(-c2nn3c(c2C(=O)N[C@H]2N=C(c4ccccc4)c4cccc(F)c4NC2=O)OCCC3)c(F)c1 [Example 100] | > 25000 | 75 |
| CC1CCOc2c(C(=O)N[C@H]3N=C(c4ccccc4)c4cccc(F)c4NC3=O)c(-c3ccccc3F)nn21 (stereo partly drawn) [Example 105, N-[(3S)-9-fluoro-2-oxo-5-phenyl-1,3-dihydro-1,4-benzodiazepin-3-yl]-2-(2-fluorophenyl)-7-methyl-6,7-dihydro-5H-pyrazolo[5,1-b][1,3]oxazine-3-carboxamide] | > 25000 | 48 |
| COc1cccc(F)c1-c1nn2c(c1C(=O)N[C@H]1N=C(c3ccccc3)c3cccc(F)c3NC1=O)OCCC2 [Example 139, 2-(2-Fluoro-6-methoxyphenyl)-N-[(3S)-9-fluoro-2-oxo-5-phenyl-1,3-dihydro-1,4-benzodiazepin-3-yl]-6,7-dihydro-5H-pyrazolo[5,1-b][1,3]oxazine-3-carboxamide] | > 25000 | 66 |
| CC1(Cn2cc(-c3nn4c(c3C(=O)N[C@H]3N=C(c5ccccc5)c5cccc(F)c5NC3=O)OCCC4)cn2)COC1 [Example 104, N-[(3S)-9-fluoro-2-oxo-5-phenyl-1,3-dihydro-1,4-benzodiazepin-3-yl]-2-[1-[(3-methyloxetan-3-yl)methyl]pyrazol-4-yl]-6,7-dihydro-5H-pyrazolo[5,1-b][1,3]oxazine-3-carboxamide] | > 25000 | 128 |
| C[C@@H]1Cn2nc(-c3ccccc3F)c(C(=O)N[C@H]3N=C(c4ccccc4)c4ccccc4NC3=O)c2O1 [Example 202, (2R)-6-(2-Fluorophenyl)-2-methyl-N-[(3S)-2-oxo-5-phenyl-1,3-dihydro-1,4-benzodiazepin-3-yl]-2,3-dihydropyrazolo[5,1-b][1,3]oxazole-7-carboxamide] | > 25000 | 127 |
| C[C@@H]1CCn2nc(-c3ccc(S(N)(=O)=O)cc3F)c(C(=O)N[C@H]3N=C(c4ccccc4)c4cccc(F)c4NC3=O)c2O1 [Example 199, (5R)-N-[(3S)-9-Fluoro-2-oxo-5-phenyl-1,3-dihydro-1,4-benzodiazepin-3-yl]-2-(2-fluoro-4-sulfamoylphenyl)-5-methyl-6,7-dihydro-5H-pyrazolo[5,1-b][1,3]oxazine-3-carboxamide] | > 25000 | 64 |
| C[C@@H]1CCn2nc(-c3ccc(N4CCOCC4)nc3)c(C(=O)N[C@H]3N=C(c4ccccc4)c4cccc(F)c4NC3=O)c2O1 [Example 56, (5R)-N-[(3S)-9-fluoro-2-oxo-5-phenyl-1,3-dihydro-1,4-benzodiazepin-3-yl]-5-methyl-2-(6-morpholino-3-pyridyl)-6,7-dihydro-5H-pyrazolo[5,1-b][1,3]oxazine-3-carboxamide] | > 25000 | 123 |
| CC(O)Cc1ccc(-c2nn3c(c2C(=O)N[C@H]2N=C(c4ccccc4)c4cccc(F)c4NC2=O)O[C@H](C)CC3)cn1 (stereo partly drawn) [Example 78, (5R)-2-[6-(2-Hydroxypropyl)pyridin-3-yl]-5-methyl-N-[(3S)-9-fluoro-2-oxo-5-phenyl-1,3-dihydro-1,4-benzodiazepin-3-yl]-6,7-dihydro-5H-pyrazolo[5,1-b][1,3]oxazine-3-carboxamide] | > 25000 | 217 |
| COC1COc2c(C(=O)N[C@H]3N=C(c4ccccc4)c4cccc(F)c4NC3=O)c(-c3ccccc3F)nn2C1 (stereo partly drawn) [Example 175, 2-(2-Fluorophenyl)-6-methoxy-N-[(3S)-9-fluoro-2-oxo-5-phenyl-1,3-dihydro-1,4-benzodiazepin-3-yl]-6,7-dihydro-5H-pyrazolo[5,1-b][1,3]oxazine-3-carboxamide] | > 25000 | 61 |
